Experimental findings from ChEMBL document CHEMBL1125004, “Chemistry and pharmacology of the non-benzodiazepine anxiolytic enciprazine and related compounds” (1990) are described below.

Activity calls are given as the source filed them. No cut-off for these calls is given here.

Assay [1] is filed under the species Mus musculus. The assay can be described thus: Ataxic activity in mice by rotarod test; Range (231.4-298.5). It is filed as functional.
Assay [2] deals with Mus musculus. The assay can be described thus: Antiaggressive anxiolytic activity in the electroshock-induced fighting test in mice (po); Range (0.69-2.88). It is filed as functional.
A short description of assay [3]: Ratio of ED50 (rotarod) to that of ED50 (fighting). It is filed as functional. (Falling from the rotarod earlier than controls is read as motor impairment.)
The nature of assay [4]: Ratio of ED50 (hexobarbital) to that of ED50 (fighting). The class given is functional.
The species named for assay [5] is Mus musculus. As to the kind of experiment: Effect on hexobarbital induced sleep was determined in hexobarbital potentiation test; Range (1 19.4-168.3). It is filed as functional.
Assay [6] relates to Mus musculus. The assay can be described thus: Antiaggressive anxiolytic activity in the electroshock-induced fighting test in mice (po); Range (1.19-5.72). The class given is functional.
Assay [7] concerns Mus musculus. The assay can be described thus: Antiaggressive anxiolytic activity in the electroshock-induced fighting test in mice (po); Range (9.4-17.88). It is filed as functional.
The subject of assay [8] is Mus musculus. The assay can be described thus: Antiaggressive anxiolytic activity in the electroshock-induced fighting test in mice (po); Range (1.46-5.72). It is filed as functional.
The species entered for assay [9] is Mus musculus. As to the kind of experiment: Ataxic activity in mice by rotarod test; Range (87.7-114.6). It is filed as functional.
The species named for assay [10] is Mus musculus. The assay can be described thus: Effect on hexobarbital induced sleep was determined in hexobarbital potentiation test; Range (181.4-219.9). It is filed as functional.
The subject of assay [11] is Rattus norvegicus. The assay can be described thus: Antiaggressive anxiolytic activity in the hexagonal maze test in rat after po administration of 2.6 mg/kg. It is filed as functional.
In assay [12] the test system is Mus musculus. As to the kind of experiment: Antiaggressive anxiolytic activity in the electroshock-induced fighting test in mice (po); Range (1 7.3-25.4). It is filed as functional.
The subject of assay [13] is Mus musculus. As to the kind of experiment: Antiaggressive anxiolytic activity in the electroshock-induced fighting test in mice (po); Range (6.62-10.07). It is filed as functional.
The species named for assay [14] is Mus musculus. The assay can be described thus: Effect on hexobarbital induced sleep was determined in hexobarbital potentiation test; Range (8.3-15.4). It is filed as functional.
The species named for assay [15] is Mus musculus. The assay can be described thus: Ataxic activity in mice by rotarod test; Range (1.1-5.3). The class given is functional.
The test system of assay [16] is Mus musculus. As to the kind of experiment: Antiaggressive anxiolytic activity in the electroshock-induced fighting test in mice (po); Range (13.27-18.96). It is filed as functional.
The test system of assay [17] is Monkey. The assay can be described thus: Tested for ability to maintain self-administration after administration of 0.3 mg/kg in monkey 3038 (53.9+/-9.3). The class given is functional, Cercopithecidae.
For assay [18], the system named is Monkey. The assay can be described thus: Tested for ability to maintain self-administration after administration of 0.3 mg/kg in monkey 2036 (44.9 +/-5.6). The class given is functional, Cercopithecidae.
In assay [19] the test system is Monkey. As to the kind of experiment: Tested for ability to maintain self-administration after administration of 0.1 mg/kg in monkey 9083 (59.8+/-15.8). The class given is functional, Cercopithecidae.
Assay [20] deals with Monkey. As to the kind of experiment: Tested for ability to maintain self-administration after administration of 0.3 mg/kg in monkey 3017 (76.6+/-15.9). It is filed as functional, Cercopithecidae.
For assay [21], the system named is Monkey. The assay can be described thus: Tested for ability to maintain self-administration after administration of 0.3 mg/kg in monkey 2037 (60.1+/-5.3). It is filed as functional, Cercopithecidae.
Assay [22] deals with Monkey. The assay can be described thus: Tested for ability to maintain self-administration after administration of 0.3 mg/kg in monkey 9079 (56.5+/-18.0). It is filed as functional, Cercopithecidae.
The test system of assay [23] is Mus musculus. As to the kind of experiment: Antiaggressive anxiolytic activity in the electroshock-induced fighting test in mice (po); Range (8.3-16.1). The class given is functional.
Assay [24] has as its system Mus musculus. The assay can be described thus: Antiaggressive anxiolytic activity in the electroshock-induced fighting test in mice (po); Range (11.7-20.3). It is filed as functional.
Assay [25] has as its system Mus musculus. The assay can be described thus: Effect on hexobarbital induced sleep was determined in hexobarbital potentiation test (po); Range (76.3-106.2). The class given is functional.
Assay [26] is filed under the species Mus musculus. As to the kind of experiment: Ataxic activity in mice by rotarod test; Range (355.1-460.2). It is filed as functional.
Assay [27] relates to Mus musculus. The assay can be described thus: Antiaggressive anxiolytic activity in the electroshock-induced fighting test in mice (po); Range (7.3-11.9). It is filed as functional.
The species named for assay [28] is Mus musculus. As to the kind of experiment: animal or person. The settings on record: po.
The species entered for assay [29] is Mus musculus. As to the kind of experiment: animal or person.
Assay [30] concerns Rattus norvegicus. As to the kind of experiment: Effect on jumping after oral administration of 10 mg/kg in rat was determined; '-' No effect. It is filed as functional, organism-based. The arrangement: dose 10 mg/kg.
The species entered for assay [31] is Mus musculus. The assay can be described thus: animal or person. This is another data set of the same source.
Description: Ataxic activity in mice by rotarod test; Range (2.99-5.35)
Assay [32] is filed under the species Mus musculus. The assay can be described thus: animal or person. The source holds these as a separate data set.
Description: Effect on alcohol induced sleep was determined in ethanol potentiation test; Range (0.41-1.79)
The subject of assay [33] is Rattus norvegicus. The assay can be described thus: Effect on diarrhea after oral administration of 20 mg/kg in rat was determined; '++' strong effect. It is filed as functional, organism-based. The arrangement: dose 20 mg/kg.
Assay [34] deals with Rattus norvegicus. As to the kind of experiment: Effect on salivation after oral administration of 10 mg/kg in rat was determined; '-' No effect. It is filed as functional, organism-based. The arrangement: dose 10 mg/kg.
Assay [35] has as its system Rattus norvegicus. The assay can be described thus: Effect on restlessness after oral administration of 10 mg/kg in rat was determined; '+' weak effect. The class given is functional, organism-based. The arrangement: dose 10 mg/kg.
The subject of assay [36] is Rattus norvegicus. The assay can be described thus: Effect on restlessness after oral administration of 20 mg/kg in rat was determined; +' weak effect. The arrangement: dose 20 mg/kg. The class given is functional, organism-based.
Assay [37] is described as follows: Ratio of ED50 (ethanol) to that of ED50 (fighting). It is filed as functional.
For assay [38], the system named is Rattus norvegicus. The assay can be described thus: Effect on tremor after oral administration of 10 mg/kg in rat was determined; '-' No effect. It is filed as functional, organism-based. The arrangement: dose 10 mg/kg.
Assay [39] relates to Rattus norvegicus. As to the kind of experiment: Effect on diarrhea after oral administration of 10 mg/kg in rat was determined; '+' weak effect. The class given is functional, organism-based. The arrangement: dose 10 mg/kg.
Assay [40] relates to Rattus norvegicus. As to the kind of experiment: Effect on tremor after oral administration of 20 mg/kg in rat was determined; +' weak effect. The class given is functional, organism-based. The arrangement: dose 20 mg/kg.
Assay [41] relates to Rattus norvegicus. The assay can be described thus: Effect on piloerection after oral administration of 10 mg/kg in rat was determined; '+' weak effect. The arrangement: dose 10 mg/kg. The class given is functional, organism-based.
Assay [42] relates to Rattus norvegicus. The assay can be described thus: Effect on piloerection after oral administration of 20 mg/kg in rat was determined; '++' strong effect. The arrangement: dose 20 mg/kg. The class given is functional, organism-based.
Assay [43] has as its system Rattus norvegicus. The assay can be described thus: Effect on jumping after oral administration of 20 mg/kg in rat was determined; +' weak effect. The class given is functional, organism-based. The arrangement: dose 20 mg/kg.
Assay [44] deals with Rattus norvegicus. The assay can be described thus: Effect on salivation after oral administration of 20 mg/kg in rat was determined; +' weak effect. The class given is functional, organism-based. The arrangement: dose 20 mg/kg.
The subject of assay [45] is Mus musculus. The assay can be described thus: Antiaggressive anxiolytic activity in the electroshock-induced fighting test in mice (po); Range (3.1-7.7). The class given is functional.

For the compound `COc1cc(OCC(O)CN2CCN(c3ccccc3N)CC2)cc(OC)c1OC.Cl` (stereo not drawn), the results for the median effective dose (ED50) in the assay listed under Mus musculus [1], in the assay with Mus musculus [2] and in the assay listed under Mus musculus [5] were 260 mg/kg, 1.4 mg/kg and 145 mg/kg, respectively. For the same compound, the values for the Therapeutic index in assay [3] and in [4] were 185 and 103, respectively.

For the compound `COc1cc(OCC(O)CN2CCN(c3ccccc3OC(C)=O)CC2)cc(OC)c1OC.Cl` (stereo not drawn), in the assay on Mus musculus [6], the ED50 (commonly the midpoint of the dose-response relation) was found to be 3.3 mg/kg.

For the compound `COc1ccccc1N1CCN(CC(COc2cc(OC)c(OC)c(OC)c2)OC(=O)c2cccnc2)CC1.Cl` (stereo not drawn), the 50% effect level in the assay on Mus musculus [7] (ED50) was put at a dose of 14 mg/kg.

As to `COc1cc(OCC(O)CN2CCN(c3ccccc3NC(C)=O)CC2)cc(OC)c1OC` (stereo not drawn), the ED50 with Mus musculus [8] stood at 3.3 mg/kg; in the assay filed under Mus musculus [9], 100 mg/kg; in the assay listed under Mus musculus [10], 200 mg/kg. Moreover, the Therapeutic index in assay [3] was determined as 30; in assay [4], 61. The Prolongation in the assay on Rattus norvegicus [11] came out at 50%.

The compound `COc1cc(OCC(O)CN2CCN(c3ccccc3C(F)(F)F)CC2)cc(OC)c1OC.Cl` (stereo not drawn) showed an ED50 with Mus musculus [12] of 21 mg/kg.

Turning to `O=C1CN=C(c2ccccc2)c2cc(Cl)ccc2N1CC1CC1` [PRAZEPAM], the median effective dose (ED50) in the assay with Mus musculus [13] stood at 8 mg/kg; in the assay filed under Mus musculus [14], 11.5 mg/kg; in the assay filed under Mus musculus [15] it was 3.1 mg/kg. In addition, the Therapeutic index in assay [3] stood at 0.4; in assay [4], 1.4.

In the assay with Mus musculus [16], `COc1ccccc1N1CCN(CC(COc2cc(OC)c(OC)c(OC)c2)OC(=O)c2cc(OC)c(OC)c(OC)c2)CC1.Cl` (stereo not drawn) yielded an ED50 of 16 mg/kg.

Take `CCCC(C)C1(CC)C(=O)NC(=O)NC1=O` (stereo not drawn) [PENTOBARBITAL]: the Effect is 53.9 in the assay on Monkey [17]; 44.9 in the assay with Monkey [18]; 59.8 in the assay with Monkey [19]; 76.6 in the assay on Monkey [20]; 60.1 in the assay with Monkey [21]; 56.5 with Monkey [22].

In the assay with Mus musculus [23], `COc1cc(OCC(O)CN2CCN(c3cccc(C)c3)CC2)cc(OC)c1OC.Cl` (stereo not drawn) came in with an ED50 of 12 mg/kg.

In the assay on Mus musculus [24], `COc1cc(OCC(O)CN2CCN(c3ccccc3Cl)CC2)cc(OC)c1OC.Cl` (stereo not drawn) registered a 50% effective dose (ED50) of 16 mg/kg.

For the compound `COc1cc(OCC(O)CN2CCN(c3cccc(C(F)(F)F)c3)CC2)cc(OC)c1OC.Cl` (stereo not drawn), the ED50 with Mus musculus [25] came out at 90 mg/kg; in the assay listed under Mus musculus [26] it was 400 mg/kg; with Mus musculus [27] it was 9 mg/kg. Also, the Therapeutic index came to 44 in [3] and 10 in assay [4].

With `CN1C(=O)CN=C(c2ccccc2)c2cc(Cl)ccc21` [DIAZEPAM], the 50% effective dose (ED50) in the assay filed under Mus musculus [28] is 1.4 mg/kg; in the assay listed under Mus musculus [29], 3 mg/kg; in the assay filed under Mus musculus [31], 4 mg/kg; in the assay filed under Mus musculus [32] it was 0.85 mg/kg. For the same compound, the Effect result in the assay on Rattus norvegicus [30], with Rattus norvegicus [34] and in the assay with Rattus norvegicus [38] was “inactive” each time. In addition, the Effect result with Rattus norvegicus [33] and in the assay with Rattus norvegicus [42] was “Active” each time. Moreover, the Effect entry in the assay on Rattus norvegicus [35], with Rattus norvegicus [36], in the assay on Rattus norvegicus [39], in the assay on Rattus norvegicus [40], in the assay on Rattus norvegicus [41] and in the assay on Rattus norvegicus [43] was “Partially active” throughout. In addition, the Effect entry in the assay with Rattus norvegicus [44] is “Partially active”. The Therapeutic index in assay [3] turned out to be 2.9; in assay [4] it was 2.1; in assay [37], 0.6.

`COc1cccc(N2CCN(CC(O)COc3cc(OC)c(OC)c(OC)c3)CC2)c1.Cl` (stereo not drawn) came in with an ED50 in the assay on Mus musculus [45] of 5.5 mg/kg.
